The record followed here is a melting point compilation (Tetko et al.; mined from patent text by program, amines drawn as free bases though some values may be those of a salt).

With `O=C(N1CCc2ccccc2CC1)C(F)(F)F`, the melting point (commonly the temperature of the solid-liquid transition) was in the range of 73 to 74 °C. In the case of `N#Cc1ncn2c1[C@@H]1CCN1C(=O)c1c-2ccc(F)c1Cl` it was 225 to 228 °C.

For the molecule `O=C(c1cccs1)c1cccc2cc[nH]c12`, the melting point lay within 129 to 130 °C. In the case of `Cc1onc(-c2ccccc2)c1-c1ccc(S(=O)(=O)NC(=O)CC(C)(C)S)cc1` it was 138 to 140 °C. For the molecule `O=c1ccn(-c2cccc(C(F)(F)F)c2)nc1-c1ccnn1-c1ccc(F)cc1`, the melting point is 130 to 131 °C. Turning to `COCCOC(=O)CC[C@@H](NC(=O)[C@@H](NC(=O)OC(C)(C)C)C(C)C)C(N)=O`, the melting point is 107 to 108 °C. In the case of `CCCc1c(OCCCOc2cc(O)c(-c3ccc(F)cc3)cc2CC)cccc1Oc1cc(F)ccc1C(=O)O` it was 62 to 64 °C. In the case of `COC(=O)c1ccccc1S(=O)(=O)N(c1ccn(-c2nc(C)cc(C)n2)n1)S(=O)(=O)c1ccccc1C(=O)OC` it was 177 °C. Turning to `CCOC(=O)Cc1cccc(-c2nc(COc3ccc(CO)cc3OC)c(C)o2)c1`, the melting point lay within 96 to 98 °C. In the case of `NS(=O)(=O)c1cc(C(=O)CBr)ccc1F` it was 125 °C.

In the case of `O=C(Nc1ccccc1)N(CCCn1ccnc1)C1=Nc2cccc3cccc1c23`, the melting point lay in the range of 240 to 250 °C. The molecule `CCOC(=O)c1cc(NCc2c(C)cccc2C)c2nc(C)n(C)c2c1` came in with a melting point of 190 °C.

On to `O=S(=O)(Cl)c1cncc(Br)c1`, for which the melting point is 64 °C. In the case of `CC1=CC(C)(C)Cc2c1nc(C(C)C)c(C(C)O)c2-c1ccc(F)cc1` (stereo not given) it was 117 to 119 °C; in that of `Cc1c(C)c2c(c(C)c1N)C(c1cccnc1)C(C)(C)O2` (stereo not given), 130 to 131 °C. In the case of `CCOC(=O)C1(O)C(=O)Nc2c(OC)cc(CCNC(=O)C(F)(F)F)cc21` (stereo not given) it was 115 to 117 °C; in that of `CC(C)(C)OC(=O)NC(CO)C(c1ccccc1)c1ccccc1` (stereo not given), 95 to 96 °C. In the case of `COC(=O)c1cc(Oc2ccc([N+](=O)[O-])cc2)ccc1OC` it was 115 to 118 °C.

In turn, `ClCc1cccc2c(C3CCCCC3)nccc12` had a melting point of 88.4 to 89.4 °C. Molecule `CC1CC(=O)NN=C1c1ccc(NCC(C)(C)[N+](=O)[O-])cc1` (stereo not given) had a melting point of 187 to 189 °C. In the case of `COc1ccc(S(=O)(=O)Nc2ccccc2Nc2ccccc2)cc1` it was 140 to 142 °C; in that of `CCc1nc2c(=O)[nH]c(=O)n(C)c2nc1CC`, 218 to 222 °C. On to `O=C(O)CCCCN1CCN2c3ccccc3Sc3ccccc3C2C1` (stereo not given), for which the melting point was 226 to 230 °C. In the case of `CC1C=C(C(=O)C(C#N)C(=O)Nc2ccccc2)c2cccc3c2=C1C1=CN=NC=31` (stereo not given) it was 275 to 278 °C; in that of `Nc1ncccc1CCc1ccccc1`, 106 to 108 °C. In the case of `O=C(O)c1cc(Cl)c(O)c(O)c1Cl` it was 230 to 231 °C; in that of `CC1(C)CCC(C)(C)C2=C1CC(C(=O)Oc1ccc(C(=O)O)cc1)C2`, 194 to 195 °C; in that of `Cc1c(CC(N)=O)c2cc(OCc3nc4ccccc4s3)ccc2n1Cc1ccc(Cl)cc1`, 169 to 170 °C. In the case of `COC(C(=O)O)C(=O)Nc1cc(Cl)cc(Cl)c1` (stereo not given) it was 142 to 145 °C; in that of `COC(=O)N(c1cc(C)ccc1C#N)C(C)C`, 100 to 101 °C. Take `O=C(N[C@@H]1CN2C(=O)N(c3cc(Cl)nc(Cl)c3)C(=O)[C@@]2(Cc2ccc(OC(F)(F)F)cc2)C1)c1ccncc1`: the melting point was 148 °C.

`COCOCc1cccc(-c2ccc(C(=O)O)cc2)c1` had a melting point of 126 to 127 °C. In the case of `O=Cc1nn(-c2cccc(C(F)(F)F)c2)c2c1CCCC2` it was 88 °C; in that of `Cc1cc(C)cc(CN(C)C(=O)C(Cc2c[nH]c3ccccc23)NC(=O)c2ccccc2)c1` (stereo not given), 140 to 142 °C; in that of `CCNC(=O)OCCCCCCCCC1Cc2c(c(OC)c(OC)c(OC)c2OC)C1`, 85 to 86 °C. In the case of `COc1cc(OC)c(N2CCCC2)cc1/C=C/C(=O)c1ccc(S(=O)(=O)Nc2ccccn2)cc1` it was 124 to 128 °C; in that of `Cn1ncc2nn(-c3cccc(C(F)(F)F)c3)c(=O)c(Cl)c21`, 156 to 158 °C.

On to `CCc1cc2c(c3ccc(O)cc13)OCc1cc(O)ccc1-2`, for which the melting point lay in the range of 184 to 192 °C.

Molecule `Cc1cc2c(cc1-c1cc(C=C3SC(=O)NC3=O)ccc1OC(F)(F)F)C(C(C)C)=CCC2(C)C` gave a melting point of 179 °C. In the case of `CN1C(=O)C(c2ccc(OC(F)F)cc2)(c2cccnc2)N=C1N` (stereo not given) it was 173 to 175 °C.

`O=c1[nH]c2ccc(OC3CCCC3)cc2n1C1CCCCC1`: the melting point was 242 °C. In the case of `CC(=O)N(C)C(=O)Oc1cccc2c1OCO2` it was 48 to 50 °C. In the case of `CC(=O)OCc1cccc(NC(=O)c2nnn(Cc3ccc(Cl)c(Cl)c3)c2C)c1` it was > 70 °C. In the case of `Cc1ccnc(Cl)c1C#N` it was 109 to 110 °C; in that of `COc1ccc(Br)c(CN(CC(F)(F)F)C(=O)OC(C)(C)C)c1`, 86 to 89 °C.

The molecule `O=C(O)Cc1cc(=O)oc2cc(O)ccc12` showed a melting point of 210 °C. In the case of `N#Cc1ccc(N2CCN(c3ccncc3)CC2)cc1` it was 155 to 158 °C. Molecule `CC(C)=CCN1CCc2c(sc(N)c2C(=O)c2ccc(Br)cc2)C1` gave a melting point of 73 to 75 °C. `CC(c1oc2ccccc2c(=O)c1-c1cccc(F)c1)n1nc(-c2ccc3cn[nH]c3c2)c2c(N)ncnc21` (stereo not given) returned a melting point of 206 to 208 °C. In the case of `CN(Cc1sc2c(=O)c(C(=O)NCc3ccc(Cl)cc3)cn(C)c2c1CO)CC(O)c1ccc(C#N)s1` (stereo not given) it was 188 to 190 °C; in that of `COCOc1cccc2c1CCC2=O`, 51 to 54 °C. `CC(=O)c1cnc(Cl)c(Cl)c1` registered a melting point of 80 °C. In the case of `Cc1ccc2c(c1)C(C(=O)O)c1ccccc1CO2` (stereo not given) it was 183 to 184 °C; in that of `CN(CCOc1ccc(/C=C/CO)cc1F)c1ccccn1`, 80 to 81 °C; in that of `OCc1cn(-c2ccccc2)nc1-c1ccc(Cl)cc1`, 141 to 142 °C.

`C=Cc1ccc(Cc2ccc(C=C)cc2)cc1` registered a melting point of 30 to 33 °C.

For the molecule `Cc1ccc(C(=O)NC2CC2)cc1-c1cc2cnc(NC3CCOCC3)nc2n(C)c1=O`, the melting point was in the range of 239 to 241 °C. In the case of `COC(=O)c1ccc(-c2cc(-c3ccc(Cl)cc3)on2)cc1` it was 225 to 226 °C; in that of `COc1ccc(Br)cc1C1=NC(C)(C)CO1`, 41 °C; in that of `Cc1cc(C(N)=O)ncc1C(SCCC=C(F)F)c1c(F)ccc(F)c1F` (stereo not given), 97 to 98 °C. Turning to `OC(COCc1ccc(Br)cc1)Cn1ccnc1` (stereo not given), the melting point was 98 to 100 °C. Molecule `CCOC(=O)C1C(c2ccc(I)cc2)CC(=O)N1C` (stereo not given) yielded a melting point of 120 to 121 °C.

Regarding `CCS(=O)(=O)Nc1c(C)c(C)cc2nc(OC)c(OC)nc12`, the melting point lay within 201 to 203 °C. In the case of `CCCN(CCC)c1ccc2nc3c4ccccc4c(=Nc4ccncc4)cc-3oc2c1` it was 215 to 216 °C. Regarding `Cc1cc(Oc2ncc(C(F)(F)F)cc2Cl)ccc1N=C=O`, the melting point was 154 to 161 °C.
